Values of other authors, collected in patent publication US20110171166A1, “POLYMER CONJUGATES OF O[…]” (Nektar Therapeutics, priority 2008, published 2011).

Legend:
primary adipocytes = settings: white and brown respectively
WT mice = settings: long-term treatment; gold thioglucose-induced hyperphagia and high-fat diet
[1] = tested on: isolated pancreatic islets, a β cell line

## osteocalcin
Primary adipocytes
  amount affecting adiponectin and Pgc1α expression in white and brown adipocytes: nanomolar amounts
WT mice
  effect on body mass and glucose metabolism: significantly weaken the deleterious effect on body mass and glucose metabolism
[1]
  amount sufficient to regulate the expression of the insulin genes and β cell proliferation markers: picomolar amounts
